Experimental data reported in ChEMBL document CHEMBL1150080, “Asimilobin and cis- and trans-murisolinones, novel bioactive Annonaceous acetogenins from the seeds of Asimina triloba” (J Nat Prod, 1995).
Values after ≈ are worked out from the molar mass of the structure shown.

Key:
[1] = Toxicity to brine shrimp larvae; assay type: organism-based; conditions: artemia, in vivo
A549 = experiment: Cytotoxicity against human A549 cells after 7 days by MTT assay; assay type: functional; conditions: A549, 168 h, read-out: ED50 (the source's name)
MCF7 = experiment: Cytotoxicity against human MCF7 cells after 7 days by MTT assay; assay type: functional; conditions: MCF7, 168 h, read-out: ED50 (the source's name)
HT-29 = experiment: Cytotoxicity against human HT-29 cells after 7 days by MTT assay; assay type: functional; conditions: HT-29, 168 h, read-out: ED50 (the source's name)
A498 = experiment: Cytotoxicity against human A498 cells after 7 days by MTT assay; assay type: functional; conditions: A498, 168 h, read-out: ED50 (the source's name)
PC-3 = experiment: Cytotoxicity against human PC3 cells after 7 days by MTT assay; assay type: functional; conditions: PC-3, 168 h, read-out: ED50 (the source's name)
MIA PaCa-2 = experiment: Cytotoxicity against human MIAPaCa2 cells after 7 days by MTT assay; assay type: functional; conditions: MIA PaCa-2, 168 h, read-out: ED50 (the source's name)

Row | Structure (SMILES) | LC50 [1] [µg/mL] | EC50 (A549) [µg/mL] | EC50 (MCF7) [µg/mL] | EC50 (HT-29) [µg/mL] | EC50 (A498) [µg/mL] | EC50 (PC-3) [µg/mL] | EC50 (MIA PaCa-2) [µg/mL]
1 | CCCCCCCCCCCCCC[C@H](O)[C@@H]1CC[C@@H]([C@@H]2CC[C@@H](CCCCC[C@@H](O)CC3=C[C@H](C)OC3=O)O2)O1 [ASIMILOBIN] | 1.06 (≈ 1.83 µM) | 0.0301 (≈ 0.052 µM) | 2.14 (≈ 3.7 µM) | 0.063 (≈ 0.109 µM) | 0.0226 (≈ 0.039 µM) | 1.47 (≈ 2.54 µM) | 0.104 (≈ 0.18 µM)
2 | CCCCCCCCCCC[C@@H](O)[C@H]1CC[C@H]([C@H](O)CCCCCCCCCC[C@@H]2C[C@H](CC(C)=O)C(=O)O2)O1 | 12.3 (≈ 21.7 µM) | 0.148 (≈ 0.261 µM) | 0.0793 (≈ 0.14 µM) | 0.754 (≈ 1.33 µM) | 3.44 (≈ 6.07 µM) | 1.48 (≈ 2.61 µM) | 0.107 (≈ 0.189 µM)
3 | COc1cccc2c1C(=O)c1c(O)c3c(c(O)c1C2=O)C[C@@](O)(C(=O)CO)C[C@@H]3O[C@H]1C[C@H](N)[C@H](O)[C@H](C)O1 [DOXORUBICIN] |  | 0.00101 (≈ 0.00186 µM) | 0.0103 (≈ 0.019 µM) | 0.0262 (≈ 0.0482 µM) |  | 0.0196 (≈ 0.0361 µM) | 0.00132 (≈ 0.00243 µM)
4 | CCCCCCCCCCC[C@@H](O)[C@H]1CC[C@H]([C@H](O)CCCCCCCCCC[C@H]2C[C@H](CC(C)=O)C(=O)O2)O1 | 18.2 (≈ 32.1 µM) | 0.0276 (≈ 0.0487 µM) | 0.0296 (≈ 0.0522 µM) | 1.16 (≈ 2.05 µM) | 1.23 (≈ 2.17 µM) | 0.214 (≈ 0.378 µM) | 0.0059 (≈ 0.0104 µM)
